Tested on: 935938-334-R-J1-PDC complex spheroid viability
Experiment: Anticancer human tumor 935938-334-R-J1-PDC patient-derived small intestine adenocarcinoma cell line growth inhibition [POLQ]
Conditions: for IC50: curve of first compound; for viability, T/C: stronger effect = lower value
Protocol: Multicellular complex tumor spheroid response to Polymerase (POL) inhibitors (novobiocin, ART-558, RP6685) in combination with a variety of drugs and investigational agents in selected tumor cell lines
The POL inhibitors (novobiocin, ART-558, and RP6685) were evaluated both individually and in combination with standard of care and investigational anticancer small molecules within a complex spheroid model of solid tumors. . Complex spheroids include a stromal component modeled by human endothelial cells (HUVEC) and fibroblasts modeled by human mesenchymal stem cells (MSCs). The concentration ranges selected for each drug and investigational agent were based upon clinically achievable concentrations if the clinical Cmax of the agent was known.
Compounds. The drugs and investigational agents: novobiocin (NSC847541), ART-558 (NSC835418), RP-6685 (NSC848927), peposertib (NSC802822), ceralasertib (NSC780249), elimusertib (NSC800525), camonsertib (NSC841442), AZD-1390 (NSC803789), olaparib (NSC753686), talazoparib (NSC767125), rucaparib (NSC756644), sotorasib (NSC818433), MRTX-1133 (NSC836407), SN-38 (NSC673596), topotecan (NSC609699), epotoside (NSC141540), doxorubicin (NSC123127), gemcitabine (NSC613327), 5-fluorouracil (NSC19893), paclitaxel (NSC125973), vemurafenib (NSC761431), MSA-2 (NSC828583), SN-011 (NSC837082), adavosertib (NSC754352), prexasertib (NSC758257), carboplatin (NSC241240) and oxaliplatin (NSC266046), were obtained from the National Cancer Institute (NCI) Developmental Therapeutics Program Chemical Repository (21). The FDA-approved anticancer drug set is available from the Developmental Therapeutics Program at https://dtp.cancer.gov/organization/dscb/obtaining/. […] The stock solutions were prepared in dimethyl sulfoxide (DMSO, Sigma-Aldrich, St. Louis, MO, cat. D2650), except for the platinum compounds which were prepared in saline (Quality Biological, Gaithersburg, MD, cat. 114-055-101), at 800-fold the tested concentration and stored at -70 degrees C prior to their use. All drugs and investigational agents were tested over a range starting from a high concentration at or near the clinical Cmax and decreasing in half-log increments. If the clinical Cmax for an agent had not been determined, the highest concentration tested was 10 microM, except for SN-38, which was tested at a high concentration of 1 microM.
Cell Culture. All cells were maintained in an incubator at 37 degrees C and 5% CO2 with 95% humidity. The PDC lines were cultured according to standard operating procedures established by the NCI PDMR (https://pdmr.cancer.gov). Table 3 of the manuscript, lists the cell lines along with the number of the three cell types plated to form the mct-spheroids and media for tumor cell growth. After thawing, all PDC lines, except 997537-175-T-J1-PDC and 415267-285-R-J2-PDC, were cultured in Matrigel-coated flasks prepared with a working solution of 1X Ham's F-12 nutrient mix, without supplementation (Thermo Fisher Scientific, cat. 11765054), 100 U/mL penicillin-streptomycin (Thermo Fisher Scientific, cat. 15140122), and 2.5% Matrigel (Corning Inc., Corning, NY, cat. 354248) for the first three passages. The two PDC lines 997537-175-T-J1-PDC and 415267-285-R-J2-PDC were cultured on uncoated flasks. The 857933-349-R-J2-PDC line was cultured in 6C/Colon 1B media containing advanced DMEM/F-12 (Thermo Fisher Scientific, cat. 12634028), 10 mM HEPES (Thermo Fisher Scientific, cat. 15630080), 1X GlutaMAX supplement (Thermo Fisher Scientific, cat. 35050061), 0.1 mg/mL primocin (InvivoGen, San Diego, CA, cat. ant-pm-2), 10% defined fetal bovine serum, heat inactivated (HyClone Laboratories Inc., Logan, UT, cat. SH30070.03HI), 50% L-WRN conditioned media (ATCC, cat. CRL-3276), 1.25 mM N-Acetyl-L-cysteine (Sigma-Aldrich, cat. A9165), 10 mM nicotinamide (Sigma-Aldrich, cat. N0636), 1X B-27 supplement (Thermo Fisher Scientific, cat. 17504044), 1X N-2 supplement (Thermo Fisher Scientific, cat. […]

[1] = second compound 0.0316 µM, first compound 0.0316 µM
[2] = second compound 0.0316 µM, first compound 0.1 µM
[3] = second compound 0.1 µM, first compound 0.0316 µM
[4] = second compound 0.1 µM, first compound 0.1 µM
[5] = second compound 0.316 µM, first compound 0.0316 µM
[6] = second compound 0.316 µM, first compound 0.1 µM
[7] = second compound 1 µM, first compound 0.0316 µM
[8] = second compound 1 µM, first compound 0.1 µM
[9] = second compound 3.16 µM, first compound 0.0316 µM
[10] = second compound 3.16 µM, first compound 0.1 µM
[11] = second compound 10 µM, first compound 0.0316 µM
[12] = second compound 10 µM, first compound 0.1 µM
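Further: spheroids exposed to drugs for seven days before viability read.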
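Wherever viability, T/C is given: 100% = DMSO vehicle control wells.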

In the case of `Cn1ncnc1[C@H]1c2n[nH]c(=O)c3cc(F)cc(c23)N[C@@H]1c1ccc(F)cc1` + Nc1ccc(C#CCN(C(=O)Cc2ncc(C(F)(F)F)cc2C(F)(F)F)c2ccc(F)cc2)nn1, the IC50 (second compound 0.0316 µM) is reported as > 100 nM, the IC50 (second compound 0.1 µM) is reported as > 100 nM and the IC50 (second compound 0.316 µM) is reported as > 100 nM. For the same compound, the IC50 (second compound 1 µM) was > 100 nM, the IC50 (second compound 3.16 µM) was > 100 nM and the IC50 (second compound 10 µM) was > 100 nM. The viability, T/C (second compound 0.0316 µM, first compound 0.000316 µM) was 98%, the viability, T/C (second compound 0.0316 µM, first compound 0.001 µM) was 106% and the viability, T/C (second compound 0.0316 µM, first compound 0.00316 µM) was 94.5%. For the same compound, the viability, T/C (second compound 0.0316 µM, first compound 0.01 µM) was 73.1%, the viability, T/C [1] was 83.9% and the viability, T/C [2] was 101%. For the same compound, the viability, T/C (second compound 0.1 µM, first compound 0.000316 µM) was 68%, the viability, T/C (second compound 0.1 µM, first compound 0.001 µM) was 103% and the viability, T/C (second compound 0.1 µM, first compound 0.00316 µM) was 88.4%. The viability, T/C (second compound 0.1 µM, first compound 0.01 µM) was 97.9%, the viability, T/C [3] was 86.5% and the viability, T/C [4] was 92.9%. It also gave a viability, T/C (second compound 0.316 µM, first compound 0.000316 µM) of 102%, a viability, T/C (second compound 0.316 µM, first compound 0.001 µM) of 104% and a viability, T/C (second compound 0.316 µM, first compound 0.00316 µM) of 107%. It also gave a viability, T/C (second compound 0.316 µM, first compound 0.01 µM) of 105%, a viability, T/C [5] of 106% and a viability, T/C [6] of 76.9%. It also gave a viability, T/C (second compound 1 µM, first compound 0.000316 µM) of 95.5%, a viability, T/C (second compound 1 µM, first compound 0.001 µM) of 85.5% and a viability, T/C (second compound 1 µM, first compound 0.00316 µM) of 91.9%. The viability, T/C (second compound 1 µM, first compound 0.01 µM) was 79%, the viability, T/C [7] was 96.6% and the viability, T/C [8] was 85.1%. The viability, T/C (second compound 3.16 µM, first compound 0.000316 µM) was 69%, the viability, T/C (second compound 3.16 µM, first compound 0.001 µM) was 81.4% and the viability, T/C (second compound 3.16 µM, first compound 0.00316 µM) was 88.1%. The viability, T/C (second compound 3.16 µM, first compound 0.01 µM) was 86.9%, the viability, T/C [9] was 85.1% and the viability, T/C [10] was 111%. For the same compound, the viability, T/C (second compound 10 µM, first compound 0.000316 µM) was 107%, the viability, T/C (second compound 10 µM, first compound 0.001 µM) was 106% and the viability, T/C (second compound 10 µM, first compound 0.00316 µM) was 106%. For the same compound, the viability, T/C (second compound 10 µM, first compound 0.01 µM) was 94.3%, the viability, T/C [11] was 99.5% and the viability, T/C [12] was 92%.

In the case of `CC1COCCN1c1cc(C2(O)CC3CCC(C2)O3)c2cnn(-c3ccn[nH]3)c2n1` (centres undefined) + Nc1ccc(C#CCN(C(=O)Cc2ncc(C(F)(F)F)cc2C(F)(F)F)c2ccc(F)cc2)nn1, the IC50 (second compound 0.0316 µM) is reported as 74.7 nM, the IC50 (second compound 0.1 µM) is reported as 171 nM and the IC50 (second compound 0.316 µM) is reported as 102 nM. For the same compound, the IC50 (second compound 1 µM) was 157 nM, the IC50 (second compound 3.16 µM) was 125 nM and the IC50 (second compound 10 µM) was 122 nM. The viability, T/C [1] was 71.3%, the viability, T/C [2] was 42.2% and the viability, T/C (second compound 0.0316 µM, first compound 0.316 µM) was 28%. For the same compound, the viability, T/C (second compound 0.0316 µM, first compound 1 µM) was 19.2%, the viability, T/C (second compound 0.0316 µM, first compound 3.16 µM) was 15.8% and the viability, T/C (second compound 0.0316 µM, first compound 10 µM) was 12.8%. It also gave a viability, T/C [3] of 83.8%, a viability, T/C [4] of 62.7% and a viability, T/C (second compound 0.1 µM, first compound 0.316 µM) of 35.5%. The viability, T/C (second compound 0.1 µM, first compound 1 µM) was 18.7%, the viability, T/C (second compound 0.1 µM, first compound 3.16 µM) was 15.4% and the viability, T/C (second compound 0.1 µM, first compound 10 µM) was 12.5%. For the same compound, the viability, T/C [5] was 107%, the viability, T/C [6] was 44.9% and the viability, T/C (second compound 0.316 µM, first compound 0.316 µM) was 34.7%. The viability, T/C (second compound 0.316 µM, first compound 1 µM) was 19.6%, the viability, T/C (second compound 0.316 µM, first compound 3.16 µM) was 18.1% and the viability, T/C (second compound 0.316 µM, first compound 10 µM) was 9.14%. It also gave a viability, T/C [7] of 75.9%, a viability, T/C [8] of 62.8% and a viability, T/C (second compound 1 µM, first compound 0.316 µM) of 29.9%. It also gave a viability, T/C (second compound 1 µM, first compound 1 µM) of 22.5%, a viability, T/C (second compound 1 µM, first compound 3.16 µM) of 15.3% and a viability, T/C (second compound 1 µM, first compound 10 µM) of 9.68%. For the same compound, the viability, T/C [9] was 99.3%, the viability, T/C [10] was 55.3% and the viability, T/C (second compound 3.16 µM, first compound 0.316 µM) was 28.2%. For the same compound, the viability, T/C (second compound 3.16 µM, first compound 1 µM) was 21.3%, the viability, T/C (second compound 3.16 µM, first compound 3.16 µM) was 16.1% and the viability, T/C (second compound 3.16 µM, first compound 10 µM) was 11.8%. It also gave a viability, T/C [11] of 94.7%, a viability, T/C [12] of 54.4% and a viability, T/C (second compound 10 µM, first compound 0.316 µM) of 29.5%. The viability, T/C (second compound 10 µM, first compound 1 µM) was 15.7%, the viability, T/C (second compound 10 µM, first compound 3.16 µM) was 18.7% and the viability, T/C (second compound 10 µM, first compound 10 µM) was 10.8%.
